We go through 2 compounds from ChEMBL document CHEMBL1240516, “Studies on ligand binding to histidine triad nucleotide binding protein 1” (Bioorg Med Chem, 2010).

The structures appear in SMILES notation.

Experiment [1] deals with T1, Adenosine 5'-monophosphoramidase HINT1 (Mus musculus, UniProt P70349).
T1 sequence (P70349 whole entry): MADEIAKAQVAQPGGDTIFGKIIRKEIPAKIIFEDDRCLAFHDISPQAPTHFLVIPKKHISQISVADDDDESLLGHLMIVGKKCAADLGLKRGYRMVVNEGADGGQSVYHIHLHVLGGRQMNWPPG
As to the kind of experiment: Binding affinity to mouse HINT1 by HSQC spectra assay.

For experiment [2], the target named is T1, Adenosine 5'-monophosphoramidase HINT1. The experiment is described as follows: Binding affinity to mouse HINT1 by fluorescence quenching assay.
The target is the same in experiment [3]. As to the kind of experiment: Binding affinity to mouse HINT1 by NMR analysis.

Broadly, the Kd is the free concentration of one partner at which half of the binding sites on the other are occupied at equilibrium, for simple one-to-one binding. For the compound `NC(=O)c1ncn([C@@H]2O[C@H](COP(=O)(O)O)[C@@H](O)[C@H]2O)c1N`, the Kd turned out to be 1200 µM in experiment [1] and 1100 µM in experiment [2].

For the compound `Nc1nc2c(ncn2[C@@H]2O[C@H](COP(=O)(O)O)[C@H](O)[C@@H]2O)c(=O)[nH]1` [E626], the Kd was found to be 60 µM in experiment [3] and 67 µM in experiment [2].
